{"source": "patent US10278942B2", "about": "(PELOTON THERAPEUTICS, INC., priority 2015, dated 2019)", "key": {"786-O-Hif-Luc cells": {"tested_on": "786-O-Hif-Luc cells", "experiment": "Luciferase Assay (HIF responsive elements reporter)", "conditions": "read-out: Mean Luciferase EC50 (nM), 786-O-Hif-Luc cells", "experimental": "A pool of infected cells were then selected against 2 μg/mL of puromycin (P8833, Sigma) for 10 days followed by limited dilution to select single clones. […] Each concentration was tested in triplicate. After about 24 hours, luciferase activity was determined using ONE-Glo Luciferase Assay Reagent (E6110, Promega) following the manufacturer's recommended procedure. EC50 were calculated using Dotmatics software."}, "[1]": {"biological_target": "T1, HIF-2α HIS TAG-PASB Domain (Homo sapiens, UniProt Q99814)", "T1 construct": "100 nM HIF-2α HIS TAG-PASB Domain", "T1 sequence (Q99814 240-350 limits assumed)": "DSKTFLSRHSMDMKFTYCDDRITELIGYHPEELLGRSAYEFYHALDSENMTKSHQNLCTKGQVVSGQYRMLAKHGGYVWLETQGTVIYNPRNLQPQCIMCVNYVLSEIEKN", "experiment": "HIF-2α Scintillation Proximity Assay (SPA)", "assay_type": "binding", "conditions": "read-out: Scintillation Proximity Assay IC50", "outline": "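IC50 values rest on percent inhibition, where the sample signal is scaled between high and low controls. Wells contain about 100 μL: compound dispensed as 2 μL of DMSO solution, 88 μL protein-probe mix and 10 μL of beads.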"}}}
{"smiles": "OC1c2c(C(F)(F)F)ccc(OCC(F)F)c2CC1(F)F", "note": "(centres unmarked) [Compound 686]", "values": [{"measurement": "EC50", "setting": "786-O-Hif-Luc cells", "value": "50 to 249", "unit": "nM"}, {"measurement": "IC50", "setting": "[1]", "value": "50 to 249", "unit": "nM"}]}
{"smiles": "O=S(=O)(c1ccc(CC2CCCCC2)c2c1C(O)C(F)(F)C2)C(F)(F)F", "note": "(centres unmarked) [Compound 509]", "values": [{"measurement": "EC50", "setting": "786-O-Hif-Luc cells", "value": "> 1000", "unit": "nM"}, {"measurement": "IC50", "setting": "[1]", "value": "< 50", "unit": "nM"}]}
{"smiles": "CS(=O)(=O)c1ccc(C(F)(F)CO)c2c1C(O)CC2", "note": "(centres unmarked) [Compound 554]", "values": [{"measurement": "EC50", "setting": "786-O-Hif-Luc cells", "value": "> 1000", "unit": "nM"}, {"measurement": "IC50", "setting": "[1]", "value": "50 to 249", "unit": "nM"}]}
{"smiles": "O=S(=O)(c1ccc(OC[C@H]2CC2(F)F)c2c1[C@H](O)C(F)(F)C2)C(F)(F)F", "note": "[Compound 727]", "values": [{"measurement": "EC50", "setting": "786-O-Hif-Luc cells", "value": "< 50", "unit": "nM"}, {"measurement": "IC50", "setting": "[1]", "value": "< 50", "unit": "nM"}]}
{"smiles": "O=S(=O)(c1ccc(OCC2CC2)c2c1[C@H](O)C(F)(F)C2)C(F)F", "note": "[Compound 781]", "values": [{"measurement": "EC50", "setting": "786-O-Hif-Luc cells", "value": "50 to 249", "unit": "nM"}, {"measurement": "IC50", "setting": "[1]", "value": "250 to 1000", "unit": "nM"}]}
{"smiles": "O=S(=O)(c1ccc(-c2cc(F)cc(Cl)c2)c2c1[C@H](O)C(F)(F)C2)C(F)(F)F", "note": "[Compound 557]", "values": [{"measurement": "EC50", "setting": "786-O-Hif-Luc cells", "value": "250 to 1000", "unit": "nM"}, {"measurement": "IC50", "setting": "[1]", "value": "< 50", "unit": "nM"}]}
{"smiles": "O=S1(=O)CC(O)c2c1ccc(Oc1cc(F)cc(Cl)c1)c2C(F)F", "note": "(centres unmarked) [Compound 361]", "values": [{"measurement": "EC50", "setting": "786-O-Hif-Luc cells", "value": "250 to 1000", "unit": "nM"}, {"measurement": "IC50", "setting": "[1]", "value": "50 to 249", "unit": "nM"}]}
{"smiles": "O[C@H]1c2c(C(F)(F)F)ccc(OC(F)F)c2CC1(F)F", "note": "[Compound 670]", "values": [{"measurement": "EC50", "setting": "786-O-Hif-Luc cells", "value": "> 1000", "unit": "nM"}, {"measurement": "IC50", "setting": "[1]", "value": "> 1000", "unit": "nM"}]}
{"smiles": "CO[C@H]1C[C@@H](Oc2ccc(S(=O)(=O)C(F)(F)F)c3c2CC(F)(F)[C@H]3O)C1", "note": "[Compound 715]", "values": [{"measurement": "EC50", "setting": "786-O-Hif-Luc cells", "value": "50 to 249", "unit": "nM"}, {"measurement": "IC50", "setting": "[1]", "value": "< 50", "unit": "nM"}]}
{"smiles": "C#Cc1c(Oc2cc(F)cc(C#N)c2)ccc2c1C(O)C(F)(F)S2(=O)=O", "note": "(centres unmarked) [Compound 409]", "values": [{"measurement": "EC50", "setting": "786-O-Hif-Luc cells", "value": "50 to 249", "unit": "nM"}, {"measurement": "IC50", "setting": "[1]", "value": "50 to 249", "unit": "nM"}]}
{"smiles": "CS(=O)(=O)c1ccc(O[C@H]2C[C@](C)(C#N)C2)c2c1[C@H](O)C(F)(F)[C@@H]2F", "note": "[Compound 767]", "values": [{"measurement": "EC50", "setting": "786-O-Hif-Luc cells", "value": "> 1000", "unit": "nM"}, {"measurement": "IC50", "setting": "[1]", "value": "> 1000", "unit": "nM"}]}
{"smiles": "N#Cc1cc(F)cc(Oc2ccc(S(=O)(=O)C(F)(F)F)cc2C#N)c1", "note": "[Compound 120]", "values": [{"measurement": "EC50", "setting": "786-O-Hif-Luc cells", "value": "> 1000", "unit": "nM"}, {"measurement": "IC50", "setting": "[1]", "value": "250 to 1000", "unit": "nM"}]}
{"smiles": "Cc1c(S(=O)(=O)C(F)F)ccc(Oc2cc(F)cc(Cl)c2)c1C#N", "note": "[Compound 32]", "values": [{"measurement": "EC50", "setting": "786-O-Hif-Luc cells", "value": "> 1000", "unit": "nM"}, {"measurement": "IC50", "setting": "[1]", "value": "< 50", "unit": "nM"}]}
{"smiles": "O=S(=O)(c1ccc(Oc2cc(F)cc(Cl)c2)c(Cl)c1CNCCF)C(F)(F)F", "note": "[Compound 114]", "values": [{"measurement": "EC50", "setting": "786-O-Hif-Luc cells", "value": "> 1000", "unit": "nM"}, {"measurement": "IC50", "setting": "[1]", "value": "> 1000", "unit": "nM"}]}
{"smiles": "CS(=O)(=O)c1ccc(Oc2cncc(C#N)c2)c2c1[C@H](O)[C@H](F)C2", "note": "[Compound 313]", "values": [{"measurement": "EC50", "setting": "786-O-Hif-Luc cells", "value": "> 1000", "unit": "nM"}, {"measurement": "IC50", "setting": "[1]", "value": "> 1000", "unit": "nM"}]}
{"smiles": "CC(=O)N[C@H]1C[C@@H](Oc2ccc(S(=O)(=O)C(F)(F)F)c3c2CC(F)(F)[C@H]3O)C1", "note": "[Compound 725]", "values": [{"measurement": "EC50", "setting": "786-O-Hif-Luc cells", "value": "> 1000", "unit": "nM"}, {"measurement": "IC50", "setting": "[1]", "value": "> 1000", "unit": "nM"}]}
{"smiles": "O=S(=O)(c1ccc(OC2CCC2)c2c1C(O)C(F)(F)C2)C(F)(F)F", "note": "(centres unmarked) [Compound 602]", "values": [{"measurement": "EC50", "setting": "786-O-Hif-Luc cells", "value": "< 50", "unit": "nM"}, {"measurement": "IC50", "setting": "[1]", "value": "< 50", "unit": "nM"}]}
{"smiles": "COCC(C)Oc1ccc(S(=O)(=O)C(F)(F)F)c2c1CC(F)(F)C2O", "note": "(centres unmarked) [Compound 594]", "values": [{"measurement": "EC50", "setting": "786-O-Hif-Luc cells", "value": "50 to 249", "unit": "nM"}, {"measurement": "IC50", "setting": "[1]", "value": "< 50", "unit": "nM"}]}
{"smiles": "COC(C)COc1ccc(S(=O)(=O)C(F)(F)F)c2c1CC(F)(F)C2O", "note": "(centres unmarked) [Compound 626]", "values": [{"measurement": "EC50", "setting": "786-O-Hif-Luc cells", "value": "50 to 249", "unit": "nM"}, {"measurement": "IC50", "setting": "[1]", "value": "< 50", "unit": "nM"}]}
{"smiles": "N#Cc1cccc(Oc2ccc(S(=O)(=O)C(F)F)c(CO)c2Br)c1", "note": "[Compound 81]", "values": [{"measurement": "EC50", "setting": "786-O-Hif-Luc cells", "value": "250 to 1000", "unit": "nM"}, {"measurement": "IC50", "setting": "[1]", "value": "250 to 1000", "unit": "nM"}]}
{"smiles": "O=S(=O)(c1ccc(C2=CC(O)CCC2)c2c1[C@H](O)C(F)(F)C2)C(F)(F)F", "note": "(stereo partly drawn) [Compound 481, (1S)-2,2-difluoro-4-(3-hydroxycyclohex-1-en-1-yl)-7-((trifluoromethyl)sulfonyl)-2,3-dihydro-1H-inden-1-ol]", "values": [{"measurement": "EC50", "setting": "786-O-Hif-Luc cells", "value": "> 1000", "unit": "nM"}, {"measurement": "IC50", "setting": "[1]", "value": "250 to 1000", "unit": "nM"}]}
{"smiles": "O=S(=O)(c1ccc(OCC2CC2)c2c1C(O)C(F)(F)C2)C(F)(F)F", "note": "(centres unmarked) [Compound 598]", "values": [{"measurement": "EC50", "setting": "786-O-Hif-Luc cells", "value": "50 to 249", "unit": "nM"}, {"measurement": "IC50", "setting": "[1]", "value": "50 to 249", "unit": "nM"}]}
{"smiles": "O=S(=O)(c1ccc(Nc2cc(F)cc(F)c2)c2c1[C@H](O)CC2)C(F)(F)F", "note": "[Compound 531]", "values": [{"measurement": "EC50", "setting": "786-O-Hif-Luc cells", "value": "250 to 1000", "unit": "nM"}, {"measurement": "IC50", "setting": "[1]", "value": "250 to 1000", "unit": "nM"}]}
{"smiles": "C[C@@H]1Cc2c(Oc3cc(F)cc(C#N)c3)ccc(S(C)(=O)=O)c2[C@@H]1O", "note": "[Compound 301]", "values": [{"measurement": "EC50", "setting": "786-O-Hif-Luc cells", "value": "> 1000", "unit": "nM"}, {"measurement": "IC50", "setting": "[1]", "value": "> 1000", "unit": "nM"}]}
{"smiles": "O=S(=O)(c1ccc(Oc2cc(F)c(F)c3[nH]ncc23)c2c1C(O)C(F)(F)C2)C(F)(F)F", "note": "(centres unmarked) [Compound 261]", "values": [{"measurement": "EC50", "setting": "786-O-Hif-Luc cells", "value": "> 1000", "unit": "nM"}, {"measurement": "IC50", "setting": "[1]", "value": "250 to 1000", "unit": "nM"}]}
{"smiles": "CO[C@H]1C[C@H](Oc2ccc(S(=O)(=O)C(F)(F)F)c3c2CC(F)(F)[C@H]3O)C1", "note": "[Compound 714]", "values": [{"measurement": "EC50", "setting": "786-O-Hif-Luc cells", "value": "250 to 1000", "unit": "nM"}, {"measurement": "IC50", "setting": "[1]", "value": "50 to 249", "unit": "nM"}]}
{"smiles": "N#Cc1cncc(Oc2ccc(S(=O)(=O)C(F)(F)F)c3c2CCC3O)c1", "note": "(centres unmarked) [Compound 220]", "values": [{"measurement": "EC50", "setting": "786-O-Hif-Luc cells", "value": "> 1000", "unit": "nM"}, {"measurement": "IC50", "setting": "[1]", "value": "250 to 1000", "unit": "nM"}]}
{"smiles": "O=S(=O)(c1ccc(O[C@H]2CCCOC2)c2c1[C@H](O)C(F)(F)C2)C(F)(F)F", "note": "[Compound 731]", "values": [{"measurement": "EC50", "setting": "786-O-Hif-Luc cells", "value": "50 to 249", "unit": "nM"}, {"measurement": "IC50", "setting": "[1]", "value": "< 50", "unit": "nM"}]}
{"smiles": "O=S(=O)(CF)c1ccc(Oc2cc(F)cc(Cl)c2)c2c1[C@H](O)C(F)(F)C2", "note": "[Compound 65]", "values": [{"measurement": "EC50", "setting": "786-O-Hif-Luc cells", "value": "< 50", "unit": "nM"}, {"measurement": "IC50", "setting": "[1]", "value": "< 50", "unit": "nM"}]}
{"smiles": "COC(=O)/C=C/c1c(S(=O)(=O)C(F)(F)F)ccc(Oc2cc(F)cc(C#N)c2)c1C", "note": "[Compound 147]", "values": [{"measurement": "EC50", "setting": "786-O-Hif-Luc cells", "value": "> 1000", "unit": "nM"}, {"measurement": "IC50", "setting": "[1]", "value": "50 to 249", "unit": "nM"}]}
{"smiles": "Cc1nnc(/C=C/c2c(S(=O)(=O)C(F)(F)F)ccc(Oc3cc(F)cc(C#N)c3)c2C)o1", "note": "[Compound 151]", "values": [{"measurement": "EC50", "setting": "786-O-Hif-Luc cells", "value": "> 1000", "unit": "nM"}, {"measurement": "IC50", "setting": "[1]", "value": "> 1000", "unit": "nM"}]}
